Laboratory results: patent US20070161592A1, “Method of treating fear” (priority 2005, published 2007)

Tests used:
[1] = tested on: NR1/NR2B; conditions: cited from earlier work
[2] = tested on: mice; assay: Locomotor activity in the open field; format: in vivo, mouse; conditions: bilateral ACC microinjection, recorded 15 minutes or one day after injection
Protocol: NR2B subunit inhibition in adult mice was examined to determine whether this impairs the formation of contextual fear memory. Three days after bilateral siRNA electroporation, mice were trained (or conditioned) and then tested for contextual fear memory by assessing freezing behavior in the same environmental context after 24 hours. There was no difference in baseline freezing or in freezing immediately following the shock/tone pairing between groups; however, there was a significant difference between groups when tested in the contextual environment one day later (n=8 for EGFP only; n=10 for control siRNA; n=8 for shock only; n=11 for NR2B siRNA; one-way ANOVA, p=0.005; FIG. 8C). […] Since the activation of NR2B was suppressed throughout the training and memory test, the roles of NR2B during the acquisition and retrieval of fear memory cannot be distinguished. Recently, electric stimulation of the ACC was reported to induce fear memory one and three days after stimulation (Tang et al., 2005), which implies that the ACC may be involved in the acquisition of fear memory. To directly address this issue, the effect of NR2B blockade using Ro25-6981 was examined. […] In order to rule out any locomotor side-effects, locomotor activity in the open field was tested after bilateral ACC microinjection of Ro25-6981 (n=4) or vehicle (n=4).

[3] = tested on: NR1/NR2A; conditions: cited from earlier work
[4] = tested on: NMDAR-mediated currents in the hippocampus; assay: NMDAR-mediated EPSCs in hippocampal CA1 neurons; format: cell-based, mouse; conditions: hippocampus
Protocol: Coronal brain slices ([…]) from 6-8-week-old C57BL/6 mice, containing ACC or hippocampus, were prepared using standard methods (Wei et al., 2001). Slices were transferred to a submerged recovery chamber containing oxygenated (95% O2 and 5% CO2) artificial cerebrospinal fluid (ACSF) (in mM: 124 NaCl, 4.4 KCl, 2 CaCl2, 1 MgSO4, 25 NaHCO3, 1 NaH2PO4, 10 glucose) at room temperature for at least 1 h.
Experiments were performed in a recording chamber on the stage of an Axioskop 2FS microscope with infrared DIC optics for visualizing whole-cell patch clamp recordings. EPSCs were recorded from layer II-III neurons using an Axon 200B amplifier (Axon Instruments, CA) and stimulations were delivered using a bipolar tungsten stimulating electrode placed in layer V of the ACC. In hippocampal slices, EPSCs were evoked by stimulating the Schaffer collateral-commissural pathway. EPSCs were induced by repetitive stimulations at 0.02 Hz and neurons were voltage clamped at −70 mV. The recording pipettes (3-5 MΩ) were filled with solution containing (mM) 145 K-gluconate, 5 NaCl, 1 MgCl2, 0.2 EGTA, 10 HEPES, 2 Mg-ATP, and 0.1 Na3-GTP (adjusted to pH 7.2 with KOH). After obtaining stable EPSCs for 10 min, three kinds of LTP induction paradigms were used within 12 min after establishing the whole-cell configuration to prevent wash out effect on LTP induction (Tsvetkov et al., 2002). The first protocol involved paired presynaptic 80 pulses at 2 Hz with postsynaptic depolarization at +30 mV (referred to as pairing training). The second involved paired 3 presynaptic stimuli that caused 3 EPSPs (10 ms ahead) with 3 postsynaptic APs at 30 Hz, paired 15 times every 5 s (named as EPSPs-APs protocol). The third involved theta-burst stimulation (5 trains of burst with 4 pulses at 100 Hz, at 200 ms interval; repeated 4 times at intervals of 10 s; named as TBS). The NMDAR-mediated component of EPSCs was pharmacologically isolated in Mg^2+-free ACSF containing: CNQX (20 μM), glycine (1 μM) and picrotoxin (100 μM). The patch electrodes contained (in mM) 102 cesium gluconate, 5 TEA-chloride, 3.7 NaCl, 11 BAPTA, 0.2 EGTA, 20 HEPES, 2 MgATP, 0.3 NaGTP, and 5 QX-314 chloride (adjusted to pH 7.2 with CsOH). Neurons were voltage clamped at −60 mV and NMDARs-mediated EPSCs were evoked at 0.05 Hz. Picrotoxin (100 μM) was always present to block GABAA receptor-mediated inhibitory synaptic currents. The access resistance was 15-30 MΩ and was monitored throughout the experiment. Data were discarded if access resistance changed by more than 15% during an experiment. Results are expressed as means±SEM. Statistical comparisons were performed using the Student t-test.
One possible mechanism is that NR2B-containing receptors may contribute more to total NMDA currents in ACC synapses than in hippocampal synapses. […] Application of 0.1 μM or 0.4 μM NVP-AAM077 depressed total NMDAR-mediated currents by 59.0±4.3% (n=5) and 63.2±1.7% (n=6) in the ACC respectively (FIG. 5). On the other hand, application of 0.3 μM or 3 μM Ro25-6981 attenuated total NMDAR-mediated currents by 18.0±1.9% (n=5) and 18.1±3.4% (n=7) in the ACC respectively, showing that 0.3 μM Ro25-6981 was sufficient to block the NR2B-mediated currents (FIG. 5). This experiment was repeated in hippocampal CA1 neurons. […] However, unlike in the ACC, application of 0.3 μM Ro25-6981 alone potentiated, rather than blocked, total NMDAR-mediated currents by 51.3±16.4% in the hippocampus (FIG. 5).
The same experiment was repeated in the hippocampus.

[5] = tested on: NR2B-mediated NMDA EPSCs; assay: NR2B-mediated NMDA EPSCs in neurons from siRNA electroporated ACC slices; format: cell-based, mouse; conditions: Ro25-6981-sensitive component, control slices 12.6±2.6%
Protocol: Experiments were performed in a recording chamber on the stage of an Axioskop 2FS microscope with infrared DIC optics for visualizing whole-cell patch clamp recordings. EPSCs were recorded from layer II-III neurons using an Axon 200B amplifier (Axon Instruments, CA) and stimulations were delivered using a bipolar tungsten stimulating electrode placed in layer V of the ACC. In hippocampal slices, EPSCs were evoked by stimulating the Schaffer collateral-commissural pathway. EPSCs were induced by repetitive stimulations at 0.02 Hz and neurons were voltage clamped at −70 mV. The recording pipettes (3-5 MΩ) were filled with solution containing (mM) 145 K-gluconate, 5 NaCl, 1 MgCl2, 0.2 EGTA, 10 HEPES, 2 Mg-ATP, and 0.1 Na3-GTP (adjusted to pH 7.2 with KOH). After obtaining stable EPSCs for 10 min, three kinds of LTP induction paradigms were used within 12 min after establishing the whole-cell configuration to prevent wash out effect on LTP induction (Tsvetkov et al., 2002). The first protocol involved paired presynaptic 80 pulses at 2 Hz with postsynaptic depolarization at +30 mV (referred to as pairing training). […] The access resistance was 15-30 MΩ and was monitored throughout the experiment. […] Results are expressed as means±SEM. […]
NMDAR-mediated EPSCs were also recorded in neurons from electroporated ACC slices.

C[C@@H](CN1CCC(Cc2ccccc2)CC1)[C@@H](O)c1ccc(O)cc1 [Ro25-6981]
IC50 [1]: 0.009 µM | locomotor activity in the open field [2]: no difference in locomotor activity | IC50 [3]: 52 µM | further reduction of total NMDAR-mediated currents ([4]; 0.3 μM Ro25-6981 added to the same neuron after 0.4 μM NVP-AAM077): 6.6±1.4% | potentiation of total NMDAR-mediated currents ([4]; 0.3 μM alone): 51.3±16.4% | effect on total NMDAR-mediated currents ([4]; bath application, FIG. 5): enhanced

NR2B siRNA: siRNA corresponding to NR2B, sense 5′-GGAUGAGUCCUCCAUGUUCtt-3′, antisense 5′-GAACAUGGAGGACUCAUCCtt-3′, Silencer Pre-designed siRNA ID #61879, Ambion (sense GGAUGAGUCCUCCAUGUUCTT; antisense GAACAUGGAGGACUCAUCCTT; chemistry not given here)
NR2B-mediated NMDA EPSCs, % of total NMDAR-mediated current [5]: 7.3±0.7%
